Earlier results in patent US11565004B2, “In vivo imaging of matrix metalloproteinases in lung disease” (The Trustees of Columbia University in the City of New York, priority 2016, dated 2023).

Tested on: MMPs-1, -2, -3, -7, -9, -12, and -13

## COc1ccc(S(=O)(=O)N(Cc2cccnc2)[C@@H](C(=O)NO)C(C)C)cc1 [CGS27023A]
  affinities against MMPs: high affinities
